According to PubChem BioAssay (NCI):
Values joined by “and” are separate entries in the source; they are usually repeats but may differ in a detail not shown here. Equal entries are not always repeated.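 Grown in 96-well plates, cells were treated for 48 hours with each compound at five concentrations. Insufficient inhibition: endpoint recorded as highest concentration tested. GI50 marks 50% less growth. Definition used: TGI = concentration required for complete inhibition of growth.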

How the values were obtained:
Assay in all cases: growth of human tumour cells (NCI), 48 h
[1] = test system: NCI/ADR-RES ovarian
[2] = test system: RPMI-8226 leukemia
[3] = test system: COLO 205 colon
[4] = test system: M14 melanoma
[5] = test system: SF-539 CNS
[6] = test system: EKVX NSCLC
[7] = test system: SK-MEL-2 melanoma
[8] = test system: SN12C renal
[9] = test system: CAKI-1 renal

Nc1nn2c(=O)c3ccccc3nc2s1
TGI [1]: > 100 µM | TGI [2]: > 100 µM | TGI [3]: > 100 µM | TGI [4]: 93.8 µM | TGI [5]: > 100 µM | TGI [6]: > 100 µM | TGI [7]: > 100 µM | TGI [8]: > 100 µM | TGI [9]: > 100 µM

Cc1cnc2c(c1)C(=O)C1=C(C2=O)C2OC(=O)CC2OC1(C)C (configuration not stated)
TGI [3]: 0.326 µM | TGI [4]: 0.824 µM | TGI [5]: 0.575 µM | TGI [6]: 0.826 µM | TGI [7]: 2.76 µM | TGI [8]: 0.318 µM | TGI [9]: 0.405 µM

CCOC(=O)/C=C(\C(=O)OCC)n1ccc(=O)n(Cc2cn(COCCOC(C)=O)nn2)c1=O
TGI [1]: 52.8 µM | TGI [2]: 55.6 µM | TGI [3]: 24.2 µM | TGI [4]: > 100 µM | TGI [5]: 38.9 µM | TGI [6]: 38.9 µM | TGI [7]: 47.7 µM | TGI [8]: 41.8 µM | TGI [9]: 21.2 µM

COC(=O)/C(C#N)=C(/NCCN)Nc1ccccc1
TGI [1]: > 100 µM | TGI [2]: > 100 µM | TGI [3]: > 100 µM | TGI [4]: > 100 µM | TGI [5]: > 100 µM | TGI [6]: > 100 µM | TGI [7]: > 100 µM | TGI [8]: > 100 µM | TGI [9]: > 100 µM

COC(=O)C1=Nc2c(C)nn(-c3ccccc3)c2N=C(c2ccccc2)C1
TGI [1]: > 10 µM | TGI [2]: > 10 µM | TGI [3]: > 10 µM | TGI [4]: > 10 µM | TGI [5]: > 10 µM | TGI [8]: > 10 µM | TGI [9]: > 10 µM

CCOC(=O)c1nnsc1NN
TGI [1]: > 100 µM | TGI [3]: > 100 µM | TGI [4]: > 100 µM | TGI [5]: > 100 µM | TGI [6]: > 100 µM | TGI [7]: > 100 µM | TGI [8]: > 100 µM | TGI [9]: > 100 µM

O=C(c1ccncc1)C1C(=O)c2ccccc2C1C1(O)c2ccccc2CC1C(O)c1ccncc1 (configuration not stated)
TGI [1]: > 100 µM | TGI [2]: 90.2 µM | TGI [3]: > 100 µM | TGI [4]: > 100 µM | TGI [5]: > 100 µM | TGI [6]: > 100 µM | TGI [7]: 57.3 µM | TGI [8]: > 100 µM | TGI [9]: > 100 µM

Cc1c2c(OCC3CCCCO3)nn(C)c(=O)c2c(C)n1-c1ccccc1 (configuration not stated)
TGI [1]: 50.7 µM | TGI [2]: > 100 µM | TGI [3]: 33.3 µM | TGI [4]: 34.9 µM | TGI [5]: 37.2 µM | TGI [6]: 33.2 µM | TGI [7]: 39.4 µM | TGI [8]: 40.6 µM | TGI [9]: 59 µM

CCCCCCCCCc1nn2c(Cc3ccccc3)nnc2s1
TGI [1]: 32.7 µM | TGI [2]: 77.2 µM | TGI [3]: 41 µM | TGI [4]: 38.6 µM | TGI [5]: 33.4 µM | TGI [6]: 29.6 µM | TGI [7]: 39.3 µM | TGI [8]: 32.8 µM | TGI [9]: > 100 µM

O=c1cc(-c2ccccc2)oc2c(-c3cc(Cl)cc4c(=O)cc(-c5ccccc5)oc34)cc(Cl)cc12
TGI [1]: > 100 µM | TGI [2]: > 100 µM | TGI [3]: > 100 µM | TGI [4]: > 100 µM | TGI [5]: 44.4 µM | TGI [6]: > 100 µM | TGI [7]: > 100 µM | TGI [8]: > 100 µM

COc1cc(/C=C/C=C2\CC/C(=C\C=C\c3ccc(O)c(OC)c3)C2=O)ccc1O
TGI [1]: > 100 µM | TGI [2]: > 100 µM | TGI [3]: > 100 µM | TGI [4]: > 100 µM | TGI [5]: > 100 µM | TGI [6]: > 100 µM | TGI [7]: > 100 µM | TGI [8]: > 100 µM | TGI [9]: > 100 µM

COc1ccc(CN2C3CC2CN(c2ccc(-c4cc(OCC(C)(C)O)cn5ncc(C#N)c45)cn2)C3)cn1
GI50 [1]: 28.7 µM | TGI [1]: > 100 µM | GI50 [2]: > 100 µM | TGI [2]: > 100 µM | GI50 [3]: 2.99 µM | TGI [3]: > 100 µM | GI50 [4]: 24.2 µM | TGI [4]: > 100 µM | GI50 [5]: 2.61 µM | TGI [5]: 8.61 µM | GI50 [6]: 6.9 µM | TGI [6]: > 100 µM | GI50 [7]: > 100 µM | TGI [7]: > 100 µM | GI50 [8]: 2.95 µM | TGI [8]: > 100 µM | GI50 [9]: 4.78 µM | TGI [9]: > 100 µM

CC(=O)c1ccc2c(c1)CC1(C2)Cc2ccccc2C1=O (configuration not stated)
TGI [1]: 75.6 µM | TGI [2]: > 100 µM | TGI [3]: > 100 µM | TGI [4]: > 100 µM | TGI [5]: > 100 µM | TGI [6]: > 100 µM | TGI [7]: > 100 µM | TGI [8]: > 100 µM | TGI [9]: > 100 µM

COc1cc2c(cc1Cc1c(F)cccc1Cl)nc(-c1c(F)cccc1Cl)n2Cc1c(F)cccc1Cl
TGI [1]: > 100 µM | TGI [2]: > 100 µM | TGI [3]: > 100 µM | TGI [4]: > 100 µM | TGI [5]: 60.1 µM | TGI [6]: 69.7 µM | TGI [7]: 47.5 µM | TGI [8]: > 100 µM | TGI [9]: 91.3 µM

CC(C)OC(=O)OCSc1ccccc1N=Cc1cccc([N+](=O)[O-])c1
TGI [1]: > 10 µM | TGI [2]: > 10 µM | TGI [3]: > 10 µM | TGI [4]: > 10 µM | TGI [5]: > 10 µM | TGI [6]: > 10 µM | TGI [7]: > 10 µM | TGI [8]: > 10 µM | TGI [9]: > 10 µM

[O-]/[N+](=C\c1ccccc1OC(=S)S)c1ccc(Cl)cc1
TGI [1]: > 100 µM | TGI [2]: > 100 µM | TGI [3]: 26.7 µM | TGI [4]: > 100 µM | TGI [5]: > 100 µM | TGI [6]: > 100 µM | TGI [7]: > 100 µM | TGI [8]: 97.8 µM | TGI [9]: > 100 µM

CC(=O)OC(Cn1cncn1)(Cn1cncn1)c1ccc(Cl)cc1Cl
TGI [1]: > 100 µM | TGI [2]: > 100 µM | TGI [3]: > 100 µM | TGI [4]: > 100 µM | TGI [5]: > 100 µM | TGI [6]: > 100 µM | TGI [7]: > 100 µM | TGI [9]: > 100 µM

C[n+]1c(-c2ccc(/C=C/C=N\NC(=O)c3ccc(C(=O)N/N=C\C=C\c4ccc(-c5cn6ccccc6[n+]5C)cc4)cc3)cc2)cn2ccccc21
TGI [1]: > 100 µM | TGI [2]: > 84.6 µM | TGI [3]: > 100 µM | TGI [4]: > 100 µM | TGI [5]: > 100 µM | TGI [6]: > 100 µM | TGI [7]: > 100 µM | TGI [8]: > 100 µM | TGI [9]: > 60.4 µM

C=Cc1ccccc1C1(O)C=CC(OC)(OC)C=C1
TGI [1]: 29.4 µM | TGI [2]: 45.2 µM | TGI [3]: 25.9 µM | TGI [4]: 18.5 µM | TGI [5]: 6.4 µM | TGI [6]: 50.5 µM | TGI [7]: 37.9 µM | TGI [8]: 24.4 µM | TGI [9]: 18.4 µM

CC(=O)OC1CCC2C3CCc4c(C)ccc(OS(=O)(=O)c5ccccc5)c4C3CCC12C (configuration not stated)
TGI [2]: > 100 µM | TGI [3]: > 100 µM | TGI [6]: > 100 µM | TGI [7]: > 100 µM | TGI [8]: > 100 µM | TGI [9]: > 100 µM

C=C(CN(C)C)C(=O)c1ccccc1[N+](=O)[O-]
GI50 [1]: 5.61 µM | TGI [1]: 48.9 µM | GI50 [2]: 15.1 µM and 2.55 µM | TGI [3]: 21.2 µM | GI50 [4]: 6.42 µM | TGI [4]: 29.6 µM | GI50 [5]: 18.6 µM | TGI [5]: 71.4 µM and 40.4 µM | GI50 [6]: 23 µM | TGI [6]: > 59.3 µM and 49 µM | GI50 [7]: 17.4 µM | TGI [7]: 33.2 µM and 35 µM | GI50 [8]: 3.74 µM | TGI [8]: 32.6 µM and 24.7 µM | GI50 [9]: 1.55 µM | TGI [9]: 28.2 µM and 2.88 µM

COc1ccc(NC(=S)NC(=O)c2ccc3c(c2)Sc2ccccc2O3)c([N+](=O)[O-])c1
TGI [1]: > 100 µM | TGI [3]: > 100 µM | TGI [4]: > 100 µM | TGI [5]: > 100 µM | TGI [7]: 96.2 µM | TGI [8]: > 100 µM | TGI [9]: > 100 µM
